This note sets out measurements from US10125101B2, “Indanylaminopyridylcyclopropanecarboxylic acids, pharmaceutical compositions and uses thereof” (Boehringer Ingelheim International GmbH, priority 2016, dated 2018).

Where two headings read alike, the source gives them in different places.

As a reminder, the Solubility is the dissolved amount per volume that the medium holds. Broadly, the IC50 is the midpoint of a concentration-inhibition curve. Lower therefore signals higher potency. As a reminder, the solubility is the dissolved amount per volume that the medium holds.

The target of one data set is human GPR40 receptor (Homo sapiens (Human), UniProt O14842). The experiment in a line: IP1 accumulation measurements using the IPOne assay system. The format is cell-based. On the procedure: IP1 accumulation measurements using the IPOne assay system—1321N1 cells stably expressing human GPR40 receptor (Euroscreen, Belgium) are seeded 24 h before the assay in white 384-well plates in culture medium containing 10% FCS, 1% Na-Pyruvate and 400 μg/mL G418. IP1 is assayed according to the manufacturer's description (Cisbio Bioassays, France). In brief, the assay is started by substitution of the culture medium by stimulation buffer (Hepes 10 mM, CaCl2 1 mM, MgCl2 0.5 mM, KCl 4.2 mM, NaCl 146 mM, glucose 5.5 mM and LiCl 50 mM, pH 7.4). Cells are stimulated for 1 h at 37° C., 5% CO2 by addition of the compounds that are diluted in stimulation buffer containing LiCl. Assays are stopped by adding HTRF-conjugates (IP1-d2 and Anti-IP1 cryptate Tb) and lysis buffer, provided by the manufacturer. After an incubation time of 1 h at room temperature plates are measured using an EnVision™, Perkin Elmer. The obtained fluorescence ratios at 665/615 […] are then used to calculate the pEC50 values using Assay Explorer 3.3 Software (Accelrys, Inc.) by interpolation using an IP1 reference curve and subsequent sigmoidal curve fitting allowing for a variable hill slope.

The next data set can be described thus: Aqueous solubility. The format is physicochemical. The settings on record: buffer pH 2.2, 24 h shaking, 2.5% DMSO. On the procedure: Starting from a 10 mM DMSO stock solution aliquots are diluted with acetonitrile/water (1/1) or buffer, respectively. After 24 h of shaking, the solutions are filtrated and analyzed by LC-UV. The amount dissolved in buffer is compared to the amount in the acetonitrile solution.

Data set [1] addresses cytochrome P450 2C8-isoenzyme (Homo sapiens (Human), UniProt P10632). The experiment in a line: Inhibition of CYP-2C8 (amodiaquine deethylation, human liver microsomes). Format: in vitro ADME. The settings on record: amodiaquine 1 μM, 37° C. On the procedure: (§1) All assays are carried out on a robotic system in 96 well plates. The final incubation volume contains TRIS buffer (0.1 M), MgCl2 (5 mM), human liver microsomes (0.05 mg/mL), amodiaquine (1 μM) and the test compound at five different concentrations or no compound (high control) in duplicate (e.g. highest concentration 10-50 μM with subsequent serial 1:4 dilutions). Following a short preincubation period, reactions are started with the cofactor (NADPH, 1 mM) and stopped by cooling the incubation down to 8° C. and subsequently by addition of one volume of acetonitrile. An internal standard solution—the stable isotope d5-desethylamodiaquine—is added after quenching of incubations. Peak area analyte (=metabolite formed) and internal standard is determined by LC-MS/MS. The resulting peak area ratio analyte to internal standard in these incubations is compared to a control activity containing no test compound. Within each of the assay runs, the IC50 of a positive control inhibitor (Montelukast) is determined.

In data set [2] the target is cytochrome P450 2C9-isoenzyme (Homo sapiens (Human), UniProt P11712). In words: Inhibition of CYP-2C9 (diclofenac hydroxylation, human liver microsomes). The format is in vitro ADME. The settings on record: diclofenac 10 μM, 37° C. On the procedure: as §1, with “(0.1” for “(0.05”, “diclofenac (10” for “amodiaquine (1”, “(e.g.,” for “(e.g.”, “^13C6-hydroxydiclofenac—is” for “d5-desethylamodiaquine—is”, “(sulfaphenazole)” for “(Montelukast)”

The mark [3] stands for this setting: 1321N1 cells stably expressing human GPR40, 1 h stimulation, read-out: EC50.

Sequence of cytochrome P450 2C8-isoenzyme (P10632 whole entry): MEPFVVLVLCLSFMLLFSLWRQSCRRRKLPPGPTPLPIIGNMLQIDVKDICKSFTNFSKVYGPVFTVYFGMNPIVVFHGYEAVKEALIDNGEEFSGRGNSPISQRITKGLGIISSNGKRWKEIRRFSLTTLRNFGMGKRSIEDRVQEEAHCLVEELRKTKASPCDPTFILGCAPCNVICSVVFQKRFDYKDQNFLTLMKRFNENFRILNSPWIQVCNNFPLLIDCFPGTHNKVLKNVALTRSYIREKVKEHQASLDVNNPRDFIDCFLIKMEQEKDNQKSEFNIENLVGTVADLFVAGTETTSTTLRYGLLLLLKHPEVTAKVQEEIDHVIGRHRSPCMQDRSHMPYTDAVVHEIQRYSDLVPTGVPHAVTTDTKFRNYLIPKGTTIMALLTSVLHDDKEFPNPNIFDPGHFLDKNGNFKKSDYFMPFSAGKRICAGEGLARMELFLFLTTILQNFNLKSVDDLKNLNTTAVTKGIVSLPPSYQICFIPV
Sequence of cytochrome P450 2C9-isoenzyme (P11712 whole entry): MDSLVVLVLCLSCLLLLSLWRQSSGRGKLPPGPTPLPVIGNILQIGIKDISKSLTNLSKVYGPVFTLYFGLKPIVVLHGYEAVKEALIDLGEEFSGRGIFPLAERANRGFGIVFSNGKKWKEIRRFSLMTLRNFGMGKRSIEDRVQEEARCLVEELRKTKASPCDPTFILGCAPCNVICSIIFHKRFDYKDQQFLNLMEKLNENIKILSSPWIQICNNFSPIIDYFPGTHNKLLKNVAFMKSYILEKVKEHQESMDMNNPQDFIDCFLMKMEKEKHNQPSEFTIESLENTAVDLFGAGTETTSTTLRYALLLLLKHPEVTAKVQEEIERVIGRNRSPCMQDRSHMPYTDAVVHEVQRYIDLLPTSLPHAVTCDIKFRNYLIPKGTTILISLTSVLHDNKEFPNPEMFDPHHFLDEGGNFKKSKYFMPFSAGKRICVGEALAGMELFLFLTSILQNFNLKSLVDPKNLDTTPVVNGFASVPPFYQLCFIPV
Sequence of human GPR40 receptor (O14842 whole entry): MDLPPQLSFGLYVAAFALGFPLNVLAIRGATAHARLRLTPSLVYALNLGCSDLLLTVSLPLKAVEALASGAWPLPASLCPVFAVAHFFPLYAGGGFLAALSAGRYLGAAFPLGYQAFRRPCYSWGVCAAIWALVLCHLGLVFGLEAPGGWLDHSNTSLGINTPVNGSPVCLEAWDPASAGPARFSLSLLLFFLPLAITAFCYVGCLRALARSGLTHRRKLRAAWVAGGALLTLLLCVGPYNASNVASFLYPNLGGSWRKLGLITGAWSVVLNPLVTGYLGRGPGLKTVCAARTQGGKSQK

`Cc1cc(OCC(=O)O)cc(C)c1-c1ccc(F)c2c1CC[C@H]2Nc1ccc([C@H]2C[C@@H]2C(=O)O)nc1` [Example 16]: the EC50 on human GPR40 receptor (setting [3]) stood at 0.924 µM. For the same compound, in the data set “Aqueous solubility”, the “Solubility at pH value 2.2” value stood at 96 μg/mL. Moreover, the IC50 in data set [1] and in data set [2] was greater than 50 µM in each case.

As to `Cc1cc(OCC(C)(C)C#N)cc(C)c1-c1ccc(F)c2c1CC[C@H]2Nc1ccc([C@H]2C[C@@H]2C(=O)O)nc1` [Example 17], at human GPR40 receptor (setting [3]), the EC50 was 0.01 µM. Also, the “Solubility at pH value 2.2” value in “Aqueous solubility” is reported as 64 μg/mL. Further, the results for the IC50 in data set [1] and in data set [2] were 19 µM and 36 µM, respectively.

For `Cc1cc(-c2ccn(C)c(=O)n2)cc(C)c1-c1ccc(F)c2c1CC[C@H]2Nc1ccc([C@H]2C[C@@H]2C(=O)O)nc1` [Example 18], the EC50 on human GPR40 receptor (setting [3]) came out at 0.005 µM. Moreover, the “Solubility at pH value 2.2” value in “Aqueous solubility” was greater than 130 μg/mL. Further, the IC50 is 21 µM in data set [1] and greater than 50 µM in data set [2].

In the case of `Cc1cc(-c2ccnn2C)cc(C)c1-c1ccc(F)c2c1CC[C@H]2Nc1ccc([C@H]2C[C@@H]2C(=O)O)nc1` [Example 19], on human GPR40 receptor (setting [3]), the EC50 worked out at 0.012 µM. Further, the “Solubility at pH value 2.2” value in the data set “Aqueous solubility” is recorded as 95 μg/mL. For the same compound, the IC50 in data set [1] amounted to 7 µM; in data set [2] it was 26 µM.

For `Cc1cc(-c2nnn(CC(C)(C)O)n2)cc(C)c1-c1ccc(F)c2c1CC[C@H]2Nc1ccc([C@H]2C[C@@H]2C(=O)O)nc1` [Example 20], the EC50 on human GPR40 receptor (setting [3]) was determined as 0.002 µM. Moreover, the “Solubility at pH value 2.2” value in the data set “Aqueous solubility” worked out at 113 μg/mL. Besides, the IC50 in data set [1] was 34 µM; in data set [2], greater than 50 µM.

As for `Cc1cnc(-c2cc(C)c(-c3ccc(F)c4c3CC[C@H]4Nc3ccc([C@H]4C[C@@H]4C(=O)O)nc3)c(C)c2)nc1` [Example 21], the EC50 on human GPR40 receptor (setting [3]) worked out at 0.002 µM. Further, in the data set “Aqueous solubility”, the “Solubility at pH value 2.2” value is 91 μg/mL. The figures for the IC50 in data set [1] and in data set [2] were 15 µM and 36 µM, respectively.

Regarding `COc1cc(-c2cc(C)c(-c3ccc(F)c4c3CC[C@H]4Nc3ccc([C@H]4C[C@@H]4C(=O)O)nc3)c(C)c2)ccn1` [Example 22], on human GPR40 receptor (setting [3]), the EC50 worked out at 0.005 µM. In addition, in “Aqueous solubility”, the “Solubility at pH value 2.2” value was 106 μg/mL. The IC50 in data set [1] is 8 µM; in data set [2], 19 µM.

Consider `Cc1cc(C(=O)O)cc(C)c1-c1ccc(F)c2c1CC[C@H]2Nc1ccc([C@H]2C[C@@H]2C(=O)O)nc1` [Example 23], for which the EC50 at human GPR40 receptor (setting [3]) came out at 0.668 µM. The “Solubility at pH value 2.2” value in “Aqueous solubility” was 97 μg/mL. Besides, the half-maximal inhibitory concentration (IC50) was 43 µM in data set [1] and greater than 50 µM in data set [2].

For the compound `O=C(O)[C@H]1C[C@@H]1c1ccc(N[C@@H]2CCc3c(-c4c(Cl)cccc4Cl)ccc(F)c32)cn1` [Example 24], the EC50 on human GPR40 receptor (setting [3]) was found to be 0.004 µM. Besides, the “Solubility at pH value 2.2” value in “Aqueous solubility” was greater than 122 μg/mL. In addition, the IC50 in data set [1] was found to be 11 µM; in data set [2] it was 22 µM.

With `Cc1cc(OCC2CCOCC2)cc(C)c1-c1ccc(F)c2c1CC[C@H]2Nc1ccc([C@H]2C[C@@H]2C(=O)O)nc1` [Example 26], the EC50 on human GPR40 receptor (setting [3]) was found to be 0.006 µM. Moreover, the “Solubility at pH value 2.2” value in the data set “Aqueous solubility” stood at 90 μg/mL. Also, the IC50 is 14 µM in data set [1] and 16 µM in data set [2].

As to `CNC(=O)c1cc(C)c(-c2ccc(F)c3c2CC[C@H]3Nc2ccc([C@H]3C[C@@H]3C(=O)O)nc2)c(C)c1` [Example 27], the EC50 on human GPR40 receptor (setting [3]) was 0.148 µM. The “Solubility at pH value 2.2” value in the data set “Aqueous solubility” came to 112 μg/mL. Besides, the IC50 in data set [1] and in data set [2] was greater than 50 µM each time.

`Cc1cc(-c2ccn(C)c(=O)c2)cc(C)c1-c1ccc(F)c2c1CC[C@H]2Nc1ccc([C@H]2C[C@@H]2C(=O)O)nc1` [Example 29]: on human GPR40 receptor (setting [3]), the EC50 came out at 0.004 µM. The “Solubility at pH value 2.2” value in the data set “Aqueous solubility” was determined as 117 μg/mL. In addition, the results for the IC50 in data set [1] and in data set [2] were 14 µM and greater than 50 µM, respectively.

For the compound `O=C(O)[C@H]1C[C@@H]1c1ccc(N[C@@H]2CCc3c(-c4ccccc4C(F)(F)F)ccc(F)c32)cn1` [Example 31], the EC50 at human GPR40 receptor (setting [3]) turned out to be 0.027 µM. Besides, the “Solubility at pH value 2.2” value in the data set “Aqueous solubility” worked out at 87 μg/mL. Moreover, the figures for the IC50 in data set [1] and in data set [2] were 15 µM and 31 µM, respectively.

`Cc1cc(OCC2CCOC2)cc(C)c1-c1ccc(F)c2c1CC[C@H]2Nc1ccc([C@H]2C[C@@H]2C(=O)O)nc1` (stereo partly shown) [Example 32]: the EC50 on human GPR40 receptor (setting [3]) was 0.007 µM. The “Solubility at pH value 2.2” value in the data set “Aqueous solubility” is listed as 123 μg/mL. Besides, the IC50 was 26 µM in data set [1] and greater than 50 µM in data set [2].

As to `Cc1cc(OCC(C)(C)O)cc(C)c1-c1ccc(F)c2c1CC[C@H]2Nc1ccc([C@H]2C[C@@H]2C(=O)O)nc1` [Example 34], the EC50 on human GPR40 receptor (setting [3]) was 0.01 µM. In the data set “Aqueous solubility”, the “Solubility at pH value 2.2” value is listed as 111 μg/mL. The IC50 in data set [1] was 45 µM; in data set [2], greater than 50 µM.

For the compound `Cc1cc(OC2CCOCC2)cc(C)c1-c1ccc(F)c2c1CC[C@H]2Nc1ccc([C@H]2C[C@@H]2C(=O)O)nc1` [Example 35], the EC50 on human GPR40 receptor (setting [3]) turned out to be 0.011 µM. In “Aqueous solubility”, the “Solubility at pH value 2.2” value stood at 106 μg/mL. For the same compound, the IC50 in data set [1] was 31 µM; in data set [2] it was greater than 50 µM.

As for `CC(C)c1ccccc1-c1ccc(F)c2c1CC[C@H]2Nc1ccc([C@H]2C[C@@H]2C(=O)O)nc1` [Example 36], on human GPR40 receptor (setting [3]), the EC50 worked out at 0.015 µM. Besides, the “Solubility at pH value 2.2” value in “Aqueous solubility” worked out at 91 μg/mL. In addition, the values for the IC50 in data set [1] and in data set [2] were 10 µM and 22 µM, respectively.

For `Cc1cc(OCC2(O)CCOCC2)cc(C)c1-c1ccc(F)c2c1CC[C@H]2Nc1ccc([C@H]2C[C@@H]2C(=O)O)nc1` [Example 37], at human GPR40 receptor (setting [3]), the EC50 was 0.019 µM. Moreover, in “Aqueous solubility”, the “Solubility at pH value 2.2” value was 119 μg/mL. Also, the IC50 is 41 µM in data set [1] and greater than 50 µM in data set [2].

Take `Cc1cc(OCC2(O)CCS(=O)(=O)CC2)cc(C)c1-c1ccc(F)c2c1CC[C@H]2Nc1ccc([C@H]2C[C@@H]2C(=O)O)nc1` [Example 38]: the EC50 at human GPR40 receptor (setting [3]) turned out to be 0.018 µM. In addition, in the data set “Aqueous solubility”, the “Solubility at pH value 2.2” value is greater than 154 μg/mL. Besides, the IC50 in data set [1] and in data set [2] was greater than 50 µM throughout.

Take `Cc1cc(C(=O)N(C)C)cc(C)c1-c1ccc(F)c2c1CC[C@H]2Nc1ccc([C@H]2C[C@@H]2C(=O)O)nc1` [Example 39]: the EC50 at human GPR40 receptor (setting [3]) was 0.148 µM. The “Solubility at pH value 2.2” value in “Aqueous solubility” is listed as 118 μg/mL. The IC50 in data set [1] and in data set [2] was greater than 50 µM throughout.

Regarding `Cc1cc(-c2nnn(C)n2)cc(C)c1-c1ccc(F)c2c1CC[C@H]2Oc1ccc([C@H]2C[C@@H]2C(=O)O)cc1` [Example 45 in WO 2013/178575, reference compound], the EC50 on human GPR40 receptor (head-to-head compilation, given as IC50, values equal the EC50 of Table 2, read-out: GPR40: IC50) amounted to 0.008 µM. The same compound registered a solubility at 24 h in “Aqueous solubility” (aqueous buffer, kinetic from dmso stock) of less than 1 µg/mL. Further, the “Solubility at pH value 2.2” value in “Aqueous solubility” was less than 1 μg/mL. The IC50 in data set [1] turned out to be 5 µM; in data set [2], 10 µM.
